According to ChEMBL document CHEMBL1201862, “PubChem BioAssay data set” (2004):
The source made the active and inactive calls.

Columns and labels:
[1] = molecular target: Eukaryotic translation initiation factor 4E (Mus musculus, UniProt P63073); test: blockers of eIF4G binding by eIF4E – biochemical, TR-FRET, dose response (AID 855); assay type: functional;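 note: potency for disrupting eIF4E binding to eIF4GI seen as loss of FRET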
[2] = HEK-293T cell viability reduction – luminescence, B-cell screen hits, cytotoxicity control for BCR NF-kB inhibitor project, dose response (AID 489021); assay type: functional, cell-based;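 note: HEK-293T cells carrying an NF-kB luciferase reporter; cells exposed to compound for about 14 hours before viability readout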
[3] = molecular target: Peroxisome proliferator-activated receptor gamma/Nuclear receptor coactivator 1 (Homo sapiens, UniProt P37231); test: TR-FRET dose response biochemical High Throughput Screening assay for agonists of the steroid receptor coactivator 1 (SRC-1) recruitment by the peroxisome proliferator-activated receptor gamma (PPAR gamma): non-selective agonists. [Related pubchem assays (depositor defined):AID1300, AID1808, AID504735, AID631]; assay type: protein assay
[4] = molecular target: Peroxisome proliferator-activated receptor gamma/Nuclear receptor coactivator 2 (Homo sapiens, UniProt P37231); test: (§1) TR-FRET dose response biochemical High Throughput Screening assay for agonists of the steroid receptor coactivator 2 (SRC-2) recruitment by the peroxisome proliferator-activated receptor gamma (PPAR gamma): non-selective agonists. [Related pubchem assays: 1297, 1032 ]; assay type: functional
[5] = molecular target: Peroxisome proliferator-activated receptor gamma/Nuclear receptor coactivator 3 (Homo sapiens, UniProt P37231); test: as §1, with “3 (SRC-3)” for “2 (SRC-2)”, “1301 (Confirmation screen.), 1048 (Primary screen.)]” for “1297, 1032 ]”; assay type: functional
[6] = molecular target: DNA dC->dU-editing enzyme APOBEC-3G (Homo sapiens, UniProt Q9HC16); assay type: functional;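 note: Dose-response counterscreen measuring inhibition of APOBEC3G DNA deaminase activity, run while confirming APOBEC3A inhibitors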
[7] = molecular target: DNA dC->dU-editing enzyme APOBEC-3A (Homo sapiens, UniProt P31941); test: Dose Response confirmation of small molecule APOBEC3A DNA Deaminase Inhibitors via a fluorescence-based single-stranded DNA deaminase assay. [Related pubchem assays (depositor defined):AID493011, AID493024]; assay type: functional
Keap1/Nrf2 = Keap1/Nrf2 (Homo sapiens, UniProt Q14145); test: disruptors of Keap1 binding to Nrf2 peptide – biochemical, fluorescence polarization, cherry-picked samples, dose response (AID 588683)
[8] = molecular target: T1, Zinc finger protein mex-5 (Caenorhabditis elegans, UniProt Q9XUB2); test: potency of MEX-5 RNA-binding blockers – biochemical, C. elegans, fluorescence polarization, dose response (AID 1960)
T1 sequence (Q9XUB2 whole entry): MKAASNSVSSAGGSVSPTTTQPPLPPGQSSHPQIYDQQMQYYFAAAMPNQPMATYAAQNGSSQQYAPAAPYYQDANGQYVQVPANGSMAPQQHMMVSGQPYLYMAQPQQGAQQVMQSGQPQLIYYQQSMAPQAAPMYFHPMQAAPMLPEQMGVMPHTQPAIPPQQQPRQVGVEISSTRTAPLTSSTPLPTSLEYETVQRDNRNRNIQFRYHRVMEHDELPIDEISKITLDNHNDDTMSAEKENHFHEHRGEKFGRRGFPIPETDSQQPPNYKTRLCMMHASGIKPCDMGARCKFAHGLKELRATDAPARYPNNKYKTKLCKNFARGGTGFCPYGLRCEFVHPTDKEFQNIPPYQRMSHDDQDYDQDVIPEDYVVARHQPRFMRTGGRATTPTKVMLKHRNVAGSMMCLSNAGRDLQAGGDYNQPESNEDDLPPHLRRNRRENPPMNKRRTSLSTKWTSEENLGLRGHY

[9] = molecular target: T2, RNA-binding protein pos-1 (Caenorhabditis elegans, UniProt G5EF15); test: disruptors of C. elegans POS-1 RNA interaction – biochemical, fluorescence polarization, dose response (AID 1964);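 note: purified POS-1 fused to maltose binding protein made in E. coli; potency of compounds blocking POS-1 binding to fluorescent RNA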
T2 sequence (G5EF15 whole entry): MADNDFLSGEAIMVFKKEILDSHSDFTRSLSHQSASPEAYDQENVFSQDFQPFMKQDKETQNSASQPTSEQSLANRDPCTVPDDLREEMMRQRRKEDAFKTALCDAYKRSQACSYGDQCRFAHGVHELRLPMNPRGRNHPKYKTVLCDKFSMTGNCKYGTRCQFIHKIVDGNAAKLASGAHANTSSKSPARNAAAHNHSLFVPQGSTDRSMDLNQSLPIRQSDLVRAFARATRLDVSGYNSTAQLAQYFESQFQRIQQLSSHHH

Protein RecA = molecular target: T3, Protein RecA (Mycobacterium tuberculosis, UniProt P9WHJ3); test: Fluorescence Cell-Free Homogeneous Dose Retest to Identify Inhibitors of RecA-Intein Splicing Activity. [Related pubchem assays (depositor defined):AID2097, AID2223, AID489010, AID492950]; assay type: functional
T3 sequence (P9WHJ3 whole entry): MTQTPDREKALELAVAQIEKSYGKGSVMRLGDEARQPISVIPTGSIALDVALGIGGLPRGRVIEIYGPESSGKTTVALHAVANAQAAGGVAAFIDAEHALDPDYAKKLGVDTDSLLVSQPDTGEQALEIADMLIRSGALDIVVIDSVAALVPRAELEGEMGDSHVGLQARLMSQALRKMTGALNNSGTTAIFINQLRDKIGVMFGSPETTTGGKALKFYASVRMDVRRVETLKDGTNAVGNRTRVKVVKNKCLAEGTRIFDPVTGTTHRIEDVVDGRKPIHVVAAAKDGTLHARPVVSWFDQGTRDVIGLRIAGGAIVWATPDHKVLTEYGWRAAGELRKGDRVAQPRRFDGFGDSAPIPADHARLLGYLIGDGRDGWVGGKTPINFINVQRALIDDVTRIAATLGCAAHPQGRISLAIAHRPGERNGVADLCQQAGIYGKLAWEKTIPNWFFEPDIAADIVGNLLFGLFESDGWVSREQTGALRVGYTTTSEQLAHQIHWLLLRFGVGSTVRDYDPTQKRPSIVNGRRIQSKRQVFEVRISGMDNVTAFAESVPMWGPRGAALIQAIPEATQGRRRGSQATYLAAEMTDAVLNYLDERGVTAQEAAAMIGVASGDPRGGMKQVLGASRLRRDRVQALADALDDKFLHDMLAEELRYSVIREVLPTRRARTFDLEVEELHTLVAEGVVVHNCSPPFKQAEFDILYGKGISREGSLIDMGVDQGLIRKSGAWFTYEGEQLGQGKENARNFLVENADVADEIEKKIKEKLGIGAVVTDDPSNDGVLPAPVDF

[10] = molecular target: T4, Replicative DNA helicase DnaB (Mycobacterium tuberculosis, UniProt P9WMR3); test: DnaB intein splicing inhibitors, dose response, biochemical, cell-free fluorescence (AID 449749); assay type: functional
T4 sequence (P9WMR3 whole entry): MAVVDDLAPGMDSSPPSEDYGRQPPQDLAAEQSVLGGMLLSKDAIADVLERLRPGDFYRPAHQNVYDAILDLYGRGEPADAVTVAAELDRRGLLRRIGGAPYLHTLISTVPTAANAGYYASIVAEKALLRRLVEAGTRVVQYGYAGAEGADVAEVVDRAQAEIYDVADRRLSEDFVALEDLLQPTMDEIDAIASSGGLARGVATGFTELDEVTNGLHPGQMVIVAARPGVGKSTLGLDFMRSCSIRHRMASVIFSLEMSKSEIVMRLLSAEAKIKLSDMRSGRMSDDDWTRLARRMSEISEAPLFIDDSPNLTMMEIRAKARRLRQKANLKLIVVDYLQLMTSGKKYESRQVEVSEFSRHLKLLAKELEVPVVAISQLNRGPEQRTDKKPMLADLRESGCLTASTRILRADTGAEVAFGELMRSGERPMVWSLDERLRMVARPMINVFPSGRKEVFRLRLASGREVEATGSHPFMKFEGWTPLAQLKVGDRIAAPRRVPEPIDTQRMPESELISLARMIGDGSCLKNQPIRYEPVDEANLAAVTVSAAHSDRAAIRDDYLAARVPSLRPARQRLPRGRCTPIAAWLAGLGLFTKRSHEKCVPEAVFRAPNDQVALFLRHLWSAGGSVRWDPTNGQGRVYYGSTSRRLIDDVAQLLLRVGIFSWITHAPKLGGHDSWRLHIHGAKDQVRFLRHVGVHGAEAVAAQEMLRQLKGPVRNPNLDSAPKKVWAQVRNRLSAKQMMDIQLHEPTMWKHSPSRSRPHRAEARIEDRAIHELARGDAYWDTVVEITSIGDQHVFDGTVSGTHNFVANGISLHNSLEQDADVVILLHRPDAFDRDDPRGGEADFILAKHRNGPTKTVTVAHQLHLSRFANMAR

Hexokinase HKDC1 = molecular target: T5, Hexokinase HKDC1 (Homo sapiens, UniProt Q2TB90); test: inhibition of HKDC1 glucose phosphorylation – biochemical, W721R variant, dose response (AID 504729); assay type: functional
T5 sequence (Q2TB90 whole entry): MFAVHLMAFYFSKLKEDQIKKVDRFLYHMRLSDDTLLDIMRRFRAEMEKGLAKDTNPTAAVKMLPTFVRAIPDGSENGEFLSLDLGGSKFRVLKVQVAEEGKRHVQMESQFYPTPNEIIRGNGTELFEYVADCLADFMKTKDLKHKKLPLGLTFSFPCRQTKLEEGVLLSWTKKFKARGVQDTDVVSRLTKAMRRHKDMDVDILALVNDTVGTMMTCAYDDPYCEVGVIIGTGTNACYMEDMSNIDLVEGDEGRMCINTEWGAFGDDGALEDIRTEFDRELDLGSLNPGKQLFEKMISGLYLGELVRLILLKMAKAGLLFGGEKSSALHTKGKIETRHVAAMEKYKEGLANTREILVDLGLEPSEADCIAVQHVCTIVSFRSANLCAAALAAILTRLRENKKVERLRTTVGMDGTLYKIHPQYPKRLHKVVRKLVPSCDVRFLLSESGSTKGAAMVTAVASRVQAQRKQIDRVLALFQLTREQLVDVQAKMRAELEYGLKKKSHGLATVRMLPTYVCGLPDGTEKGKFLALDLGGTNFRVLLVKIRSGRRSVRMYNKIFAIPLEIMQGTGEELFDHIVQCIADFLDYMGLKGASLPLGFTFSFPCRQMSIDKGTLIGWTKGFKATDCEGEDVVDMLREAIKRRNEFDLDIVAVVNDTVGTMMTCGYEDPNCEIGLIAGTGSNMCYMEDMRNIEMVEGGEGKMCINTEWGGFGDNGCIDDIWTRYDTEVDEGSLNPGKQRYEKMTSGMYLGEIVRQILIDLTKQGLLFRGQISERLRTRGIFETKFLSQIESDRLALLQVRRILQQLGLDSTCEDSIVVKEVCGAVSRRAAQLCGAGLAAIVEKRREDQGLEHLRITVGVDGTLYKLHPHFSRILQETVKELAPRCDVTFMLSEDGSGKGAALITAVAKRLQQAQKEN

[11] = molecular target: T6, Carboxy-terminal domain RNA polymerase II polypeptide A small phosphatase 1 (Homo sapiens, UniProt Q9GZU7); test: CTDSP1 inhibitors, concentration-response, biochemical, absorbance readout, ultra-high-throughput screen actives (AID 540297); assay type: functional
T6 sequence (Q9GZU7 whole entry): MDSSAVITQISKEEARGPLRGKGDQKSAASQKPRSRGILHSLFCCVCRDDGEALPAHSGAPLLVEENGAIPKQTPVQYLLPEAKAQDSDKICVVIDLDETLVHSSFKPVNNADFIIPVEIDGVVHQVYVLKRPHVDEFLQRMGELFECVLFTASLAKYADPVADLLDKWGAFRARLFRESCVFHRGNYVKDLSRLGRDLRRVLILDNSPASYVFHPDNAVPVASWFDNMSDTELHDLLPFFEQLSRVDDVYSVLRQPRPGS

HEK293 = test: cells; settings: Homo sapiens;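 note: cells exposed to compound for 14 hours overnight before viability readout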
Tumor necrosis factor = Tumor necrosis factor (Homo sapiens, UniProt P01375); test: analog potency on TNFa NF-kB signaling – cell-based, revised, SAR follow-up (AID 2337); assay type: functional
Tumor necrosis factor, sequence (P01375 whole entry): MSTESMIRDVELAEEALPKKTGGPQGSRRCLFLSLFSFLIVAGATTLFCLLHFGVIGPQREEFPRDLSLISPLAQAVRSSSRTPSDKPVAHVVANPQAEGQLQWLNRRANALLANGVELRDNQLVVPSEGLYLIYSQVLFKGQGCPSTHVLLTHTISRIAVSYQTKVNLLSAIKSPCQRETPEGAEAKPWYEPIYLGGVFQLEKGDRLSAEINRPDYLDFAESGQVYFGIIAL

DNA dC->dU-editing enzyme APOBEC-3G, sequence (Q9HC16 whole entry): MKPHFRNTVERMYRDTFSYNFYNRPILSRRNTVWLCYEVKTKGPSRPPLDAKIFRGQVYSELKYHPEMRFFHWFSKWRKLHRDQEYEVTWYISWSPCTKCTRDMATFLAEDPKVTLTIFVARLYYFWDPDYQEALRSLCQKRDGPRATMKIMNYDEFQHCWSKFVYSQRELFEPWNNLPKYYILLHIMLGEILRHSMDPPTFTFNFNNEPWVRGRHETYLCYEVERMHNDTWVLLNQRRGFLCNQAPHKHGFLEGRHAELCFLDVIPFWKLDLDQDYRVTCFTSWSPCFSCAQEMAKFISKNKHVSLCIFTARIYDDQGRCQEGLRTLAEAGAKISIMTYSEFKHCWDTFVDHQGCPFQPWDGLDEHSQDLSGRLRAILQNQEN
Eukaryotic translation initiation factor 4E, sequence (P63073 whole entry): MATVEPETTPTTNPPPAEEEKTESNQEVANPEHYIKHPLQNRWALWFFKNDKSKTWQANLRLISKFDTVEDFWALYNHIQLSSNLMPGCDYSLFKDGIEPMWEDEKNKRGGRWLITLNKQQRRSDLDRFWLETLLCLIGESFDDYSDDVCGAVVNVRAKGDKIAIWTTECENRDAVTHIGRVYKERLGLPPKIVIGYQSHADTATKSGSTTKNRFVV
Keap1/Nrf2, sequence (Q16236 whole entry): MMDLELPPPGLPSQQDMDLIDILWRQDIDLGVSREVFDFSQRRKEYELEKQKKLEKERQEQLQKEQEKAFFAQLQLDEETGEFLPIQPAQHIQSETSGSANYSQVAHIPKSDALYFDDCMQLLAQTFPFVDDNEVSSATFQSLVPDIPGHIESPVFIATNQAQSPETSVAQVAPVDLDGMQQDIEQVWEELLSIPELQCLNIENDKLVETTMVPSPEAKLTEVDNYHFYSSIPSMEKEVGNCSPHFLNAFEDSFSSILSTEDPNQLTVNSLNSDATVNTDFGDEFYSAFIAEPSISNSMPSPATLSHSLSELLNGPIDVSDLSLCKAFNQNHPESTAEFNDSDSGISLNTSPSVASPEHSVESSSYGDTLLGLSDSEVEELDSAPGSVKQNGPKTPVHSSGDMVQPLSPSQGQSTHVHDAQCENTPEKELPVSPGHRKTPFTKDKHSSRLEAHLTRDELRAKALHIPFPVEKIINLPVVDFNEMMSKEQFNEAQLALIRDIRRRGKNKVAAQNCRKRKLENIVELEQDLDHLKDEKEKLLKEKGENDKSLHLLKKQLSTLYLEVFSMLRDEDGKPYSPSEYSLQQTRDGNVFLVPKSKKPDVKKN
Keap1/Nrf2, sequence (Q14145 whole entry): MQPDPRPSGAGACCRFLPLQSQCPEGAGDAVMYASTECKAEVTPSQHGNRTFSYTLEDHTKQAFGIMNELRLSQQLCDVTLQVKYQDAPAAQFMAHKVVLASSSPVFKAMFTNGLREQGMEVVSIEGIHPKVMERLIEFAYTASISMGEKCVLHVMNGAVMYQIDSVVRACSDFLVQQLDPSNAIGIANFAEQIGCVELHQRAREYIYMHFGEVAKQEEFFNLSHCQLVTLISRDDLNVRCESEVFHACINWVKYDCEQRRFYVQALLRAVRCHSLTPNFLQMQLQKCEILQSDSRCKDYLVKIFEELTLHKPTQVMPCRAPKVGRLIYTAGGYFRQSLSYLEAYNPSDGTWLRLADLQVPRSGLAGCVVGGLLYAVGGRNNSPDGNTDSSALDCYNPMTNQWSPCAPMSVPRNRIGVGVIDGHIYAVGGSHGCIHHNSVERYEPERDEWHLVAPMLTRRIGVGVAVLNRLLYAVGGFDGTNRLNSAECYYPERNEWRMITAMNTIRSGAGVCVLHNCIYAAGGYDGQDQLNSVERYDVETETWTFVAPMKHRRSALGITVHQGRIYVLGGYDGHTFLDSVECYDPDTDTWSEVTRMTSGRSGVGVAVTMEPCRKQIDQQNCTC
DNA dC->dU-editing enzyme APOBEC-3A, sequence (P31941 whole entry): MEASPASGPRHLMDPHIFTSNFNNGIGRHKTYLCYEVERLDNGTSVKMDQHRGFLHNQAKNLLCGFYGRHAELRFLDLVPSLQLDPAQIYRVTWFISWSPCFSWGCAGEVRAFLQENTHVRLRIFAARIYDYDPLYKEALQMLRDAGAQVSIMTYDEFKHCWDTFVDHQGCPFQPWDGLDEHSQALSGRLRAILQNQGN
Peroxisome proliferator-activated receptor gamma/Nuclear receptor coactivator 1, sequence (P37231 whole entry): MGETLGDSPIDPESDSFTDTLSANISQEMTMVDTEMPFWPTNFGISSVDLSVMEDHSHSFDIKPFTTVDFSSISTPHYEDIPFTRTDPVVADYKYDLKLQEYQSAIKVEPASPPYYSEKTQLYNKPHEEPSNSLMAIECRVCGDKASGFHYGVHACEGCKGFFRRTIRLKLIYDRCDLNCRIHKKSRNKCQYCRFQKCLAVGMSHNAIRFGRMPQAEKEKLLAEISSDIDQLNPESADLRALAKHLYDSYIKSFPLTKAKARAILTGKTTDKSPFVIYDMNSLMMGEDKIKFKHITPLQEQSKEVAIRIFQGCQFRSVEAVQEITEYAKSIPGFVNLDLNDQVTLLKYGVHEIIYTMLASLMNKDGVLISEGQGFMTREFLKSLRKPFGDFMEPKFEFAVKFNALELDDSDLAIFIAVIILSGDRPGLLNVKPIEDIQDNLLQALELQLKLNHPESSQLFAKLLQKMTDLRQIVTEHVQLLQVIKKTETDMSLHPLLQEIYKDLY
Peroxisome proliferator-activated receptor gamma/Nuclear receptor coactivator 1, sequence (Q15788 whole entry, further chain): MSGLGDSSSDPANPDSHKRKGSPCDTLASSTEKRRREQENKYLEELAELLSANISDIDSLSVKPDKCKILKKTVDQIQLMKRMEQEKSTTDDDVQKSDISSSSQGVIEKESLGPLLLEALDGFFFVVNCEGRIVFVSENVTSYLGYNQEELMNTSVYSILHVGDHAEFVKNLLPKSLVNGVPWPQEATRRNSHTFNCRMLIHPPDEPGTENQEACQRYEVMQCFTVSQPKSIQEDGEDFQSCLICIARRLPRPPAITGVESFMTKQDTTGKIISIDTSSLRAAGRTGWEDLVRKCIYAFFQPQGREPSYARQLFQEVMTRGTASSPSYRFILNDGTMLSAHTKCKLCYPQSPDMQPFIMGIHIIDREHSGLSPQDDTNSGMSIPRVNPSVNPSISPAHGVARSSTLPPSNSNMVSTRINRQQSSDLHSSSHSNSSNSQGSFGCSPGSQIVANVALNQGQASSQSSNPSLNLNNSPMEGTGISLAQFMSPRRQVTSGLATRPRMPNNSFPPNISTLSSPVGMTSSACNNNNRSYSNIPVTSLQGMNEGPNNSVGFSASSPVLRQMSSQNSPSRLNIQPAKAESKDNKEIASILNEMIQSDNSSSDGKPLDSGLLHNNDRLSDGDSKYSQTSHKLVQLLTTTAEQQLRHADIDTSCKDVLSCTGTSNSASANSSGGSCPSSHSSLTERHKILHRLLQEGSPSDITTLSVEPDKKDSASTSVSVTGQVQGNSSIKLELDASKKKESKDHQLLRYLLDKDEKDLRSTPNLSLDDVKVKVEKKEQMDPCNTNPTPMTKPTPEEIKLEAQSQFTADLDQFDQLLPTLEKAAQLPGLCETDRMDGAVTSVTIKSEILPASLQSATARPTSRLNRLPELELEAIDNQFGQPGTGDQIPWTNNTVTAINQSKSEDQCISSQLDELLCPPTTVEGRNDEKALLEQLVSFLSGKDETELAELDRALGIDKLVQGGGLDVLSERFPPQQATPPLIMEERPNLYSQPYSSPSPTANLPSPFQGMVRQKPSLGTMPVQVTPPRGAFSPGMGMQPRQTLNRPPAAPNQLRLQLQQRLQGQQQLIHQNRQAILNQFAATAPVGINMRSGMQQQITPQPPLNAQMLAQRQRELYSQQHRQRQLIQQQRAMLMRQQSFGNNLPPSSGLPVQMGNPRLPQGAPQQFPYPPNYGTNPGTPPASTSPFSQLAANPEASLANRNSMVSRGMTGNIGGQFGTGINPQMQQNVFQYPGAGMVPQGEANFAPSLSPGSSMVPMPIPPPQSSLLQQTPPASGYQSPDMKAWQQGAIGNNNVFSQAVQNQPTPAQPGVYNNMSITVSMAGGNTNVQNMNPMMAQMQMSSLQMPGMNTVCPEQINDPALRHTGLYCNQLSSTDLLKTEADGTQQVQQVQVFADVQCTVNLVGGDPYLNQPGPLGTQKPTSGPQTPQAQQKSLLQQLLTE

For `c1csc(-c2nn3c(Cn4cnc5ccccc54)nnc3s2)c1`, the IC50 (cells) was < 0.1 µM (active) and the IC50 [1] was > 64 µM (inactive).

With `CCn1c(=O)cc(SCC(=O)N2CCN(C(=O)c3ccco3)CC2)c2ccccc21` the IC50 [2] was > 80 µM (inactive), the EC50 [3] was > 79.4 µM (inactive) and the EC50 [4] was > 79.4 µM (not active). For the same compound, the EC50 [5] was > 79.4 µM (not active).

For `O=C(Nc1ccccc1F)c1ccc(CSc2ncccn2)cc1`, the IC50 [6] was 9.71 µM (active) and the IC50 [7] was 4.88 µM (active).

In the case of `N#C/C(=C\c1c[nH]c2ccccc12)C(=O)NCC1CCCO1` (configuration not stated), the IC50 [6] is reported as 5.05 µM (active) and the IC50 [7] is reported as 5.69 µM (active).

In the case of `CCOC(=O)C1CCN(C(=O)Cc2cccc3ccccc23)CC1`, the IC50 [6] is reported as 5.83 µM (active) and the IC50 [7] is reported as 5.89 µM (active).

With `COc1ccc2nc3ccccc3nc2c1NC(=O)c1ccccc1Cl` the AC50 (Keap1/Nrf2) was 29.2 µM (active), the EC50 [8] was > 300 µM (not active) and the EC50 [9] was > 300 µM (not active).

In the case of `CCOc1ccc(N(CC(=O)Nc2ccccc2)S(C)(=O)=O)cc1`, the IC50 [6] is reported as 4.76 µM (active) and the IC50 [7] is reported as 3.89 µM (active).

With `C[n+]1cc(-c2ccccc2)n2c1CCCCC2` the IC50 [6] was 2.3 µM (active) and the IC50 [7] was 1.66 µM (active).

For `COc1ccc(-c2ccc(N(C)C)cc2)cc1[C@H]1[C@H]2C=CC[C@@H](C)[C@@H]2C(=O)N1Cc1ccccc1`, the IC50 [2] was > 80 µM (inactive).

For `CC(C)(C)c1c(Cl)c(O)c(-c2ccccc2)c(=O)n1-c1ccccc1`, the EC50 (Protein RecA) was 27.2 µM (active), the AC50 [10] was 20.1 µM (active) and the IC50 (Hexokinase HKDC1) was 8.83 µM (active). For the same compound, the IC50 [1] was 14.1 µM (active).

In the case of `COc1ccc(OC)c(NC(=O)COC(=O)c2cc3c(s2)CCC3)c1`, the IC50 [11] is reported as 2.39 µM (active) and the IC50 [1] is reported as 50 µM (inactive).

For `CSc1ccc(NC(=O)c2ccc(CN3CCCCC3)cc2)cc1`, the IC50 (HEK293) was > 20 µM (inactive) and the IC50 (Tumor necrosis factor) was 19.6 µM (active).

In the case of `COc1ccc(Br)cc1CNCC1CCCO1` (configuration not stated), the AC50 (Keap1/Nrf2) is reported as > 52 µM (inactive).

With `CC1=C[C@@H]2c3cccc4[nH]cc(c34)C[C@H]2N(C)C1` [AGROCLAVINE] the AC50 (Keap1/Nrf2) was 38.4 µM (active), the EC50 [8] was 8.67 µM (inconclusive) and the EC50 [9] was 11.2 µM (active).
